Source: PMC9952270, “Mitochondrial Peroxiredoxin 3 Is Rapidly Oxidized and Hyperoxidized by Fatty Acid Hydroperoxides” (Antioxidants, 2023)

T1: HsPrx3 (human peroxiredoxin 3, wtHsPrx3) (Homo sapiens, UniProt P30048)
T1 construct: gene PRDX3; three additional N-terminal Gly; E. coli BL21 Star (DE3); reduced subunit predicted 21,797 Da; three Cys; dodecamer when reduced
T1 sequence (P30048 62-256): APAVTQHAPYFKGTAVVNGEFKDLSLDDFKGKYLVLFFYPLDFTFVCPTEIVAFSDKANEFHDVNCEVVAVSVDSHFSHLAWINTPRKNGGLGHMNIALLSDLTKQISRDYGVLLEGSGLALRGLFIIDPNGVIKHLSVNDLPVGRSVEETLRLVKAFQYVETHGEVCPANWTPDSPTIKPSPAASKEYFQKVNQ

B1: Human peroxiredoxin 3 (wild type, recombinant, lacking the mitochondrial targeting sequence) (enzyme)
chain: GGGAPAVTQHAPYFKGTAVVNGEFKDLSLDDFKGKYLVLFFYPLDFTFVCPTEIVAFSDKANEFHDVNCEVVAVSVDSHFSHLAWINTPRKNGGLGHMNIALLSDLTKQISRDYGVLLEGSGLALRGLFIIDPNGVIKHLSVNDLPVGRSVEETLRLVKAFQYVETHGEVCPANWTPDSPTIKPSPAASKEYFQKVNQ
notes: predicted molecular weight of the reduced subunit 21,797 Da; Samples were alkylated (NEM or 2-iodoacetamide) before analysis; also called HsPrx3; wtHsPrx3; source: E. coli BL21 Star (DE3), purified as previously reported [13]

Key:
[1] = molecular target: T1, HsPrx3 (human peroxiredoxin 3, wtHsPrx3); assay: stopped-flow intrinsic fluorescence, slope of kobs of second phase; format: biochemical; conditions: rate constant of peroxidatic Cys hyperoxidation; covalent oxidation, inactivating; pH 7.8, 11–12 °C, 50 mM sodium phosphate, 0.1 mM DTPA
Excerpt: stopped-flow intrinsic fluorescence, slope of kobs of second phase on HsPrx3 (human peroxiredoxin 3, wtHsPrx3)

[2] = molecular target: T1, HsPrx3 (human peroxiredoxin 3, wtHsPrx3); assay: thermal unfolding by intrinsic fluorescence; format: binding; conditions: reduced HsPrx3 4 µM, AA 10 µM, 2 mM DTT, 50 mM phosphate, 0.1 mM DTPA, pH 7.8
[3] = molecular target: T1, HsPrx3 (human peroxiredoxin 3, wtHsPrx3); assay: intrinsic tryptophan fluorescence quenching / FRET titration, hyperbolic fit; format: binding
[4] = molecular target: the molecule itself; assay: ESI mass spectrometry of the intact protein after C4 HPLC; reduced HsPrx3 (10 µM) in 50 mM phosphate buffer plus 0.1 mM DTPA, pH 7.8, 25 °C, exposed to H2O2 (20 µM) or 15(S)-HpEPE (10 or 20 µM), alkylated with 2-iodoacetamide (5 mM); disulfide-bonded dimer

| Molecule | khyperox. (M^-1s^-1) [1] | also measured |
| --- | --- | --- |
| CC/C=C\C[C@@H](/C=C/C=C\C/C=C\C/C=C\CCCC(=O)O)OO [15(S)-HpEPE, 15S-hydroperoxy-5Z,8Z,11Z,13E,17Z-eicosapentaenoic acid] | (2.6 ± 0.4) × 10^7 M^−1s^−1 | – |
| CCCCC[C@@H](/C=C/C=C\C/C=C\C/C=C\CCCC(=O)O)OO [15(S)-HpETE, 15S-hydroperoxy-5Z,8Z,11Z,13E-eicosatetraenoic acid] | (1.7 ± 0.1) × 10^7 M^−1s^−1 | – |
| CCCCC/C=C\C/C=C\C/C=C\C/C=C\CCCC(=O)O [AA] | – | Tm shift [2]: ~ 4 °C |
| O=S(=O)(O)c1cccc2cccc(Nc3ccccc3)c12 [ANS, 8-anilino-1-naphtalene sulfonic acid] | – | Kd [3]: 65 ± 4 µM |
| CCCCC[C@@H](/C=C/[C@@H]1[C@@H](C/C=C\CCCC(=O)O)[C@@H]2C[C@H]1OO2)OO [PGG2, 9α,11α-epidioxy-15S-hydroperoxy-prosta-5Z,13E-dien-1-oic acid] | (3.1 ± 0.7) × 10^5 M^−1s^−1 | – |
| B1 | – | stoichiometry N [4]: 2 |
